Laboratory results reported in the supplement of paper PMC10307832.

How the values were obtained:
Test in all cases: relative viability (nuclei count vs DMSO), 5 days (fraction); higher = more cells survive
NCI-H1651 = tested on: NCI-H1651
Outline: (§1)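 Lung cancer cell lines in 1536-well plates were dosed by pin tool the day after seeding, either with one drug alone or with a fixed anchor-drug dose plus five library-drug doses (not always all listed) in √10 steps. After 5 days, cells were fixed and their nuclei stained in one step (final 0.05% Triton X-100, 1% formaldehyde, 1 ug/ml Hoechst), then counted on 4× images. Relative viability is the nuclei count in treated wells divided by that in vehicle wells. Values are medians of duplicate plates.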

NCI-H2405 = tested on: NCI-H2405
Outline: as §1

NCI-H1793 = tested on: NCI-H1793
Outline: as §1

LCLC-103H = tested on: LCLC-103H
Outline: as §1

ChaGo-K-1 = tested on: ChaGo-K-1
Outline: as §1

NCI-H1395 = tested on: NCI-H1395
Outline: as §1

NCI-H2087 = tested on: NCI-H2087
Outline: as §1

SK-MES-1 = tested on: SK-MES-1
Outline: as §1

NCI-H1563 = tested on: NCI-H1563
Outline: as §1

HCC-827 = tested on: HCC-827
Outline: as §1

NCI-H838 = tested on: NCI-H838
Outline: as §1

EPLC-272H = tested on: EPLC-272H
Outline: as §1

NCI-H520 = tested on: NCI-H520
Outline: as §1

NCI-H2085 = tested on: NCI-H2085
Outline: as §1

EMC-BAC-2 = tested on: EMC-BAC-2
Outline: as §1

LU99A = tested on: LU99A
Outline: as §1

COR-L23 = tested on: COR-L23
Outline: as §1

NCI-H2023 = tested on: NCI-H2023
Outline: as §1

NCI-H1944 = tested on: NCI-H1944
Outline: as §1

NCI-H650 = tested on: NCI-H650
Outline: as §1

H3255 = tested on: H3255
Outline: as §1

Compound `O=c1cc(N2CCOCC2)oc2c(-c3cccc4c3sc3ccccc34)cccc12` + COc1cc2c(Oc3ccc(NC(=O)C4(C(=O)Nc5ccc(F)cc5)CC4)cc3F)ccnc2cc1OCCCN1CCOCC1 [Foretinib] (partner 0.25 µM) has a relative viability (NCI-H1651; first compound 0.01 µM) of 0.775, a relative viability (NCI-H1651; first compound 0.03162 µM) of 0.766 and a relative viability (NCI-H1651; first compound 0.1 µM) of 0.958. For the same compound, the relative viability (NCI-H1651; first compound 0.3162 µM) was 0.796, the relative viability (NCI-H1651; first compound 1 µM) was 0.624 and the relative viability (NCI-H2405; first compound 0.01 µM) was 1.07. The relative viability (NCI-H2405; first compound 0.03162 µM) was 1.07, the relative viability (NCI-H2405; first compound 0.1 µM) was 1.12 and the relative viability (NCI-H2405; first compound 0.3162 µM) was 1.03. The relative viability (NCI-H2405; first compound 1 µM) was 1.02, the relative viability (NCI-H1793; first compound 0.01 µM) was 0.594 and the relative viability (NCI-H1793; first compound 0.1 µM) was 0.568. The relative viability (NCI-H1793; first compound 0.3162 µM) was 0.685, the relative viability (NCI-H1793; first compound 1 µM) was 0.486 and the relative viability (LCLC-103H; first compound 0.01 µM) was 0.685. For the same compound, the relative viability (LCLC-103H; first compound 0.03162 µM) was 0.786, the relative viability (LCLC-103H; first compound 0.1 µM) was 0.806 and the relative viability (LCLC-103H; first compound 0.3162 µM) was 0.824. It also gave a relative viability (LCLC-103H; first compound 1 µM) of 0.746, a relative viability (ChaGo-K-1; first compound 0.01 µM) of 0.901 and a relative viability (ChaGo-K-1; first compound 0.03162 µM) of 1.01. For the same compound, the relative viability (ChaGo-K-1; first compound 0.1 µM) was 0.948, the relative viability (ChaGo-K-1; first compound 0.3162 µM) was 0.869 and the relative viability (ChaGo-K-1; first compound 1 µM) was 0.96. For the same compound, the relative viability (NCI-H1395; first compound 0.01 µM) was 0.995, the relative viability (NCI-H1395; first compound 0.03162 µM) was 0.915 and the relative viability (NCI-H1395; first compound 0.1 µM) was 0.973. It also gave a relative viability (NCI-H1395; first compound 0.3162 µM) of 1.17, a relative viability (NCI-H1395; first compound 1 µM) of 0.986 and a relative viability (NCI-H2087; first compound 0.01 µM) of 1.09. For the same compound, the relative viability (NCI-H2087; first compound 0.03162 µM) was 1.4, the relative viability (NCI-H2087; first compound 0.1 µM) was 1.28 and the relative viability (NCI-H2087; first compound 0.3162 µM) was 1.24. For the same compound, the relative viability (NCI-H2087; first compound 1 µM) was 1.2, the relative viability (SK-MES-1; first compound 0.01 µM) was 1.13 and the relative viability (SK-MES-1; first compound 0.03162 µM) was 0.771. It also gave a relative viability (SK-MES-1; first compound 0.1 µM) of 0.847, a relative viability (SK-MES-1; first compound 0.3162 µM) of 0.968 and a relative viability (SK-MES-1; first compound 1 µM) of 0.91. It also gave a relative viability (NCI-H1563; first compound 0.01 µM) of 0.913, a relative viability (NCI-H1563; first compound 0.03162 µM) of 0.833 and a relative viability (NCI-H1563; first compound 0.1 µM) of 0.895. For the same compound, the relative viability (NCI-H1563; first compound 0.3162 µM) was 0.901, the relative viability (NCI-H1563; first compound 1 µM) was 0.888 and the relative viability (HCC-827; first compound 0.01 µM) was 1.01. The relative viability (HCC-827; first compound 0.03162 µM) was 1.11, the relative viability (HCC-827; first compound 0.1 µM) was 1.03 and the relative viability (HCC-827; first compound 0.3162 µM) was 1.04. The relative viability (HCC-827; first compound 1 µM) was 1.03, the relative viability (NCI-H838; first compound 0.01 µM) was 0.987 and the relative viability (NCI-H838; first compound 0.03162 µM) was 1.02. The relative viability (NCI-H838; first compound 0.1 µM) was 1.12, the relative viability (NCI-H838; first compound 0.3162 µM) was 0.958 and the relative viability (NCI-H838; first compound 1 µM) was 0.997. The relative viability (EPLC-272H; first compound 0.01 µM) was 0.607, the relative viability (EPLC-272H; first compound 0.03162 µM) was 0.667 and the relative viability (EPLC-272H; first compound 0.3162 µM) was 0.734. It also gave a relative viability (EPLC-272H; first compound 1 µM) of 0.688, a relative viability (NCI-H520; first compound 0.01 µM) of 0.896 and a relative viability (NCI-H520; first compound 0.03162 µM) of 0.86. The relative viability (NCI-H520; first compound 0.1 µM) was 0.725, the relative viability (NCI-H520; first compound 0.3162 µM) was 0.774 and the relative viability (NCI-H520; first compound 1 µM) was 0.734. It also gave a relative viability (NCI-H2085; first compound 0.01 µM) of 0.96, a relative viability (NCI-H2085; first compound 0.03162 µM) of 0.941 and a relative viability (NCI-H2085; first compound 0.1 µM) of 0.961. It also gave a relative viability (NCI-H2085; first compound 0.3162 µM) of 0.912, a relative viability (NCI-H2085; first compound 1 µM) of 0.944 and a relative viability (EMC-BAC-2; first compound 0.01 µM) of 1.01. The relative viability (EMC-BAC-2; first compound 0.03162 µM) was 0.995, the relative viability (EMC-BAC-2; first compound 0.1 µM) was 0.99 and the relative viability (EMC-BAC-2; first compound 0.3162 µM) was 0.983. The relative viability (EMC-BAC-2; first compound 1 µM) was 0.978, the relative viability (LU99A; first compound 0.01 µM) was 0.937 and the relative viability (LU99A; first compound 0.03162 µM) was 0.739. The relative viability (LU99A; first compound 0.1 µM) was 0.908, the relative viability (LU99A; first compound 0.3162 µM) was 0.806 and the relative viability (LU99A; first compound 1 µM) was 0.777. The relative viability (COR-L23; first compound 0.01 µM) was 1.03, the relative viability (COR-L23; first compound 0.03162 µM) was 0.996 and the relative viability (COR-L23; first compound 0.1 µM) was 0.954. It also gave a relative viability (COR-L23; first compound 0.3162 µM) of 0.923, a relative viability (COR-L23; first compound 1 µM) of 1.06 and a relative viability (NCI-H2023; first compound 0.01 µM) of 0.719. The relative viability (NCI-H2023; first compound 0.03162 µM) was 0.803, the relative viability (NCI-H2023; first compound 0.1 µM) was 0.763 and the relative viability (NCI-H2023; first compound 0.3162 µM) was 0.873. The relative viability (NCI-H2023; first compound 1 µM) was 0.636, the relative viability (NCI-H1944; first compound 0.01 µM) was 0.876 and the relative viability (NCI-H1944; first compound 0.03162 µM) was 0.928. It also gave a relative viability (NCI-H1944; first compound 0.1 µM) of 0.829, a relative viability (NCI-H1944; first compound 0.3162 µM) of 0.89 and a relative viability (NCI-H1944; first compound 1 µM) of 0.821. For the same compound, the relative viability (NCI-H650; first compound 0.03162 µM) was 1.07, the relative viability (NCI-H650; first compound 0.1 µM) was 0.918 and the relative viability (NCI-H650; first compound 0.3162 µM) was 1.01. The relative viability (NCI-H650; first compound 1 µM) was 0.992, the relative viability (H3255; first compound 0.01 µM) was 0.82 and the relative viability (H3255; first compound 0.03162 µM) was 0.952. The relative viability (H3255; first compound 0.1 µM) was 0.826, the relative viability (H3255; first compound 0.3162 µM) was 0.83 and the relative viability (H3255; first compound 1 µM) was 0.943.
